Laboratory results published in ChEMBL document CHEMBL1201862, “PubChem BioAssay data set” (2004).
Calls of active or inactive are those of the source.

Experiments:
[1] = target: Protein disulfide-isomerase (Homo sapiens, UniProt P07237); test: PDI inhibitors, insulin aggregation turbidity, dose response, biochemical, absorbance, cherry-picked samples (AID 602350); type: functional
[2] = NIH-3T3 fibroblast cytotoxicity, dose response, cytotoxicity control, cell-based, fluorescence, Alamar Blue, secondary assay (AID 2327); type: functional;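 further: NIH-3T3 mouse fibroblasts cultured with fluconazole at 8 µg/mL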
[3] = target: T1, High affinity choline transporter 1 (Homo sapiens, UniProt Q9GZV3); test: CHT activators, dose response, cell-based, 10-point CRC, membrane potential dye (AID 602376); type: functional
T1 sequence (Q9GZV3 whole entry): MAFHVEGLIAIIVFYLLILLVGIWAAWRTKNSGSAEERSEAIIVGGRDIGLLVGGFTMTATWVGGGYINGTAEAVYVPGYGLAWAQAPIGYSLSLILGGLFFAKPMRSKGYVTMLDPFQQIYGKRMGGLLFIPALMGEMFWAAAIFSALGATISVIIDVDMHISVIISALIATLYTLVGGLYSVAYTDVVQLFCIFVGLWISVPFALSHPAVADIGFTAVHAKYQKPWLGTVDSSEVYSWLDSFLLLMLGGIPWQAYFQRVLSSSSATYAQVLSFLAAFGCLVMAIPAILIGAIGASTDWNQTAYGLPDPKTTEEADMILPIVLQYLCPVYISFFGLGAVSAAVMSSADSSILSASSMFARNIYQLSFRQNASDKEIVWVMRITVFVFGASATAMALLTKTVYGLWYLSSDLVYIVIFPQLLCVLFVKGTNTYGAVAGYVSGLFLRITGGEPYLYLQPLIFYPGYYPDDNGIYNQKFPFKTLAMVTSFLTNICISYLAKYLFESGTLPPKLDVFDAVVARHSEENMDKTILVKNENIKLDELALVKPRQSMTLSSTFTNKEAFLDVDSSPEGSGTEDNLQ

[4] = inhibitors of intracellular T. cruzi replication, confirmation, NIH3T3 host cells, beta-gal luminescence (AID 2044); type: functional, cell-based;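 further: intracellular parasites grown in NIH/3T3 mouse fibroblasts as host cells; luminescent beta-galactosidase reporter signal from transgenic T. cruzi replicating inside host cells; inhibitors lower the luminescence signal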
[5] = C. albicans growth with fluconazole, confirmation, fluorescence, retest (AID 2467); type: functional, cell-based
INS1 = test: beta cell apoptosis inhibitors, cytokine rescue, dose response, luminescence, retest (AID 449756); type: functional, cell-based; details: Rattus norvegicus;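 further: cell death triggered by IL-1 beta plus TNF-alpha plus IFN-gamma mixture; protective hits raise ATP signal compared with cytokine alone wells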
[6] = cytotoxicity toward NIH3T3 fibroblasts, dose response, counter-screen, cell-based, ATP luminescence, mouse fibroblasts (AID 2010); type: functional;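 further: cells exposed to compound for about 90 hours before reading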
[7] = target: T2, Orexin/Hypocretin receptor type 1 (Homo sapiens, UniProt O43613); test: (§1) Fluorescence-based cell-based high throughput dose response assay for antagonists of the orexin 1 receptor (OX1R; HCRTR1). [Related pubchem assays (depositor defined):AID434989, AID435008, AID463079, AID485270, AID492963, AID492964, AID492965, AID493232, AID504717, AID504718]; type: functional
T2 sequence (O43613 whole entry): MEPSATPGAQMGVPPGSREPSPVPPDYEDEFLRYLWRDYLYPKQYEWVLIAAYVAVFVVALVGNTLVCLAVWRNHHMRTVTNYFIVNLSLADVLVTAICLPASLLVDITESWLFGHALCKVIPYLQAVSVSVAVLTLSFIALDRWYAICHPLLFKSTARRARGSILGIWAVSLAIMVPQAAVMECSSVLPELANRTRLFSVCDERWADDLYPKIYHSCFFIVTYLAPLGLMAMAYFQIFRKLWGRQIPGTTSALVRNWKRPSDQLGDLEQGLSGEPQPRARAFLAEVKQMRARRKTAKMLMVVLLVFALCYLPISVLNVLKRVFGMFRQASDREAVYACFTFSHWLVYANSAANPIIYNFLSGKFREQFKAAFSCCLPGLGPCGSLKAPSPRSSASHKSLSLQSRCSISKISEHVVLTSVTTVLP

Orexin receptor type 2 [8] = target: T3, Orexin receptor type 2 (Homo sapiens, UniProt O43614); test: Counterscreen assay for antagonists of the orexin 1 receptor (OX1R; HCRTR1): Fluorescence-based cell-based dose response assay for antagonists of the orexin 2 receptor (OX2R; HCRTR2), run by assay provider.; type: functional
T3 sequence (O43614 whole entry): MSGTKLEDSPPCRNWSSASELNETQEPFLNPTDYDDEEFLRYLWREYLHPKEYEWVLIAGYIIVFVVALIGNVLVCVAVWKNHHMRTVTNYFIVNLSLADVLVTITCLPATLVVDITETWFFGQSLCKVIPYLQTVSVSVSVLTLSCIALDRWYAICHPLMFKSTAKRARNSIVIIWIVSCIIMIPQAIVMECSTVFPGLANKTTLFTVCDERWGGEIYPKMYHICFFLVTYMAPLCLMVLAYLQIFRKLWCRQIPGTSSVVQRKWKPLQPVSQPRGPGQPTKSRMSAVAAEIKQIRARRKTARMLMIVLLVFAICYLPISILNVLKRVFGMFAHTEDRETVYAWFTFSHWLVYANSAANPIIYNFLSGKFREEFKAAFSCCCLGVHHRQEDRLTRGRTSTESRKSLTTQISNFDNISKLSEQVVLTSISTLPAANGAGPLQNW

Orexin receptor type 2 [9] = target: T3, Orexin receptor type 2; test: Counterscreen assay for antagonists of the orexin 1 receptor (OX1R; HCRTR1): Homogeneous Time Resolved Fluorescence (HTRF)-based cell-based dose response assay for antagonists of the orexin 2 receptor (OX2R; HCRTR2), run by assay provider.; type: functional
[10] = target: T4, Corticotropin-releasing factor receptor 2/Corticotropin-releasing factor-binding protein (Homo sapiens, UniProt P24387+Q13324); test: activators of CRF receptor 2 with binding protein – uHTS hits, confirmation (AID 602473); type: functional; details: read-out: EC50_Mean
T4 sequence (Q13324 whole entry): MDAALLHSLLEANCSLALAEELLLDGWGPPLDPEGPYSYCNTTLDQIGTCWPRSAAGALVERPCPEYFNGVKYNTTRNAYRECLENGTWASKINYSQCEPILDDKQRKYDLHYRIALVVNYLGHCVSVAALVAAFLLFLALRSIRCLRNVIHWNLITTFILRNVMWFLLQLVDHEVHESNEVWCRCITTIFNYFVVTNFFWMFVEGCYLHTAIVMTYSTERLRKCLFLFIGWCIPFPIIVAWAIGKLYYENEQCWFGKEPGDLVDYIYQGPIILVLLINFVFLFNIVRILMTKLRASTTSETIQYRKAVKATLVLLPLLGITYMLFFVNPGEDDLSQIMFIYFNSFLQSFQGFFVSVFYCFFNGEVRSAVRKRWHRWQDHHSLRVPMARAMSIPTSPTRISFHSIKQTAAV
T4 sequence (P24387 whole entry): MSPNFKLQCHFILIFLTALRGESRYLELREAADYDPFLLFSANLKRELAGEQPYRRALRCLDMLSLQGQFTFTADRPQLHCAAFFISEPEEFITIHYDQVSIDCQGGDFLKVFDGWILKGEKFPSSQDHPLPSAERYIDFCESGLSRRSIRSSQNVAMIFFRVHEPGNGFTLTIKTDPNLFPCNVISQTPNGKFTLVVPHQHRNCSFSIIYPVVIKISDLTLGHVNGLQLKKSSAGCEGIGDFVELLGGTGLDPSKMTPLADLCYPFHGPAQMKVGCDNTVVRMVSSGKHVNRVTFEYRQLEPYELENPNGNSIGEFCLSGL

[11] = (§2) Counterscreen for antagonists of the orexin 1 receptor (OX1R; HCRTR1): Fluorescence-based cell-based high throughput dose response assay to identify antagonists of the parental CHO cell line. [Related pubchem assays (depositor defined):AID434989, AID435008, AID463079, AID485270, AID492963, AID492964, AID492965, AID493232, AID504699, AID504701]; type: functional
CHO-K1 = test: as §2, with “Homogeneous time resolved fluorescence (HTRF)-based” for “Fluorescence-based”, “cell-based” for “cell-based high throughput”, “CHO-K1” for “CHO”; type: functional; details: Cricetulus griseus;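 further: potency for inhibition of ATP-stimulated IP1 production as antagonists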
[12] = target: T2, Orexin/Hypocretin receptor type 1; test: as §1, with “Homogeneous Time Resolved Fluorescence (HTRF)-based” for “Fluorescence-based”; type: functional
[13] = HepG2 cell cytotoxicity, cytotoxicity control, set 6 (AID 602432); type: functional; details: Mycobacterium tuberculosis
[14] = Vero cell cytotoxicity, cytotoxicity control for M. tuberculosis inhibitor project, purified and synthesized samples, set 8 (AID 602431); type: functional; details: Mycobacterium tuberculosis
[15] = THP-1 cell cytotoxicity, cytotoxicity control, set 6 (AID 602433); type: functional; details: Mycobacterium tuberculosis
[16] = target: T5, V-type proton ATPase subunit c' (Saccharomyces cerevisiae S288c, UniProt P32842); test: Dose Response of Small Molecules that Regulate V-ATPase Proton Transport in Yeast using pHLuorin, Powder Set1.; type: functional; details: read-out: EC50_MICROM
T5 sequence (P32842 whole entry): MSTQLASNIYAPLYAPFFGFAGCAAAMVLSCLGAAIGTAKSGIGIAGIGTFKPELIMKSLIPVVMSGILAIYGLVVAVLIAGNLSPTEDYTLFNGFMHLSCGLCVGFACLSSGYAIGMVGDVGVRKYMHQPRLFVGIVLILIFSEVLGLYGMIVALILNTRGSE

[17] = target: T5, V-type proton ATPase subunit c'; test: Dose Response with BCECF Assay for V-ATPase inhibitors that increase vacuolar pH, Powder Set 1.; type: functional; details: read-out: EC50_MICROM
[18] = HEp-2 cell cytotoxicity, dose response, cytotoxicity control for RSV inhibitor project, HTS (AID 2410); type: functional; details: human respiratory syncytial virus

Protein disulfide-isomerase, sequence (P07237 whole entry): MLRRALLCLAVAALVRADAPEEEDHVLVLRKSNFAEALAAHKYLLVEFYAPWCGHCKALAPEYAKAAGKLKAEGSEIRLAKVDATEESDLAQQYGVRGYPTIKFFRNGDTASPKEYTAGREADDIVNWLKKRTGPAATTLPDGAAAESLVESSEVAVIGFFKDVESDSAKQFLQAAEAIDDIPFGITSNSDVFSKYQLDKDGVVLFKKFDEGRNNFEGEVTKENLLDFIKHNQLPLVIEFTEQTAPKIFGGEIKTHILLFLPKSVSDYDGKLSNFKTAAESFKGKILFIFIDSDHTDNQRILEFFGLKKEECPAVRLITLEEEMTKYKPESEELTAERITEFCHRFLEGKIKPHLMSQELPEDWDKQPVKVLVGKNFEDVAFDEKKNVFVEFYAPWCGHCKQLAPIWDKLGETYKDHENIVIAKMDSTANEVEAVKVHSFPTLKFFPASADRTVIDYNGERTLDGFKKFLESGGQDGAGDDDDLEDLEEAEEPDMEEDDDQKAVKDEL

For `Cc1c(O)ccc2c(CN3CCN(CCO)CC3)cc(=O)oc12`, which AC50 [1] is on record?
The AC50 was 8.66 µM (active).

For `COc1ccc(C)cc1Nc1n[n+](-c2ccccc2)c(-c2ccc(OC)c(OC)c2OC)s1`, which EC50 [2] is on record?
The EC50 was > 160 µM (inactive).

What about the EC50 [3] of the same compound?
Its EC50 is 12.1 µM (active).

What about the EC50 [4] of the same compound?
The EC50 was 0.215 µM (active).

What about the EC50 [5] of the same compound?
Its EC50 is 2.71 µM (active).

And the AC50 (INS1)?
Its AC50 is 11.2 µM (active).

What about the EC50 [6] of the same compound?
The EC50 was > 30 µM (not active).

For `Cc1cc(-c2ccc(N3CCOCC3)cc2)nc2ccccc12`, which IC50 [7] is on record?
Its IC50 is 5.3 µM (active).

What about the IC50 (Orexin receptor type 2 [8]) of the same compound?
Its IC50 is > 88.8 µM (inactive).

And the IC50 (Orexin receptor type 2 [9])?
Its IC50 is 19.3 µM (inactive).

And the EC50 [10]?
Its EC50 is > 53 µM (inactive).

And the IC50 [11]?
The IC50 was > 49.8 µM (inactive).

What about the IC50 (CHO-K1) of the same compound?
The IC50 was > 66.2 µM (inactive).

What about the IC50 [12] of the same compound?
Its IC50 is 2.37 µM (active).

Which CC50 [13] does the source give for `O=C(NCc1ccc(C(=O)N2CCC(c3ccccc3)CC2)cc1)Nc1ccc(Cl)cc1` here?
Its CC50 is 35 µM (active).

What about the CC50 [14] of the same compound?
Its CC50 is 40.1 µM (active).

What about the CC50 [15] of the same compound?
The CC50 was 24.7 µM (active).

Which results are given for `O=C(c1ccc([N+](=O)[O-])o1)N1CCN(c2nc3c(Cl)cccc3s2)CC1`?
EC50 [16]: 3.53 µM (active); EC50 [4]: 0.254 µM (active); EC50 [17]: 0.86 µM (active); CC50 [18]: > 50 µM (active); EC50 [6]: 20.6 µM (active)
